Assays:
firefly luciferase = firefly luciferase (Photinus pyralis, UniProt P08659); conditions: strong inhibitor of the luciferase; read-out: IC50 as inhibitor of light production; cited from earlier work
[1] = system: firefly luciferase-luciferin reaction; experiment: light production and light duration in vitro (test tube mixture, photos analysed by Image J); assay type: biochemical; conditions: for light duration extended by: PLGA-LH2 1 mM, CS-CoA 625 μM
living watercress plant = experiment: light emission in living watercress plant after LIN/PBIN infiltration of nanoparticles; assay type: in vivo, watercress (Nasturtium officinale); conditions: 1-2 hours compared to 30 minutes incubation of SNP-Luc (LIN) before free luciferin 0.1 mM
Experimental: Leaf discs of spinach plants 3 week-olds were infiltrated with 30 mM HEPES buffer (pH 7.4) via PBIN at speed of 0.4 bar/s and cell membranes were stained with FM 464 fluorescent dye (red).
SNP-Luc was infiltrated by LIN 1 h in advance, and PLGA-LH alone or PLGA-LH and CS-CoA were infused into a watercress plant by PBIN. […] To extend the illumination time, the third nanoparticle class, CS-CoA, was co-infiltrated with PLGA-LH by PBIN. […] In FIG. 3E, a and b represent concentration of SNP-Luc (μM) and concentration of PLGA-LH2 (mM), respectively. […] Maximum number of photons/sec was obtained from the first photo (analyzed by Image J). […]
Infiltration of nanoparticles in living plants. […] The pressure was monitored by digital hydronic manometer (Dwyer instruments, IN, USA). […]
Estimation of photon numbers from light emitting plants. The power of LED light was first measured at 12.70 cm away using a photo-detector (λ=530 nm, detector surface area=1 cm^2) (PM100, ThorLabs, NJ, USA). The number of photons incident on the photo-detector was determined using the measured power (10 nW) divided by the energy of a single photon at 530 nm, given by the equation below
An image of the LED light was taken at 68.58 cm of distance with 1/1000 s exposure to avoid saturation of pixels and converted into quantitative values using ImageJ (Mean value=0.016).

firefly luciferase, sequence (P08659 whole entry): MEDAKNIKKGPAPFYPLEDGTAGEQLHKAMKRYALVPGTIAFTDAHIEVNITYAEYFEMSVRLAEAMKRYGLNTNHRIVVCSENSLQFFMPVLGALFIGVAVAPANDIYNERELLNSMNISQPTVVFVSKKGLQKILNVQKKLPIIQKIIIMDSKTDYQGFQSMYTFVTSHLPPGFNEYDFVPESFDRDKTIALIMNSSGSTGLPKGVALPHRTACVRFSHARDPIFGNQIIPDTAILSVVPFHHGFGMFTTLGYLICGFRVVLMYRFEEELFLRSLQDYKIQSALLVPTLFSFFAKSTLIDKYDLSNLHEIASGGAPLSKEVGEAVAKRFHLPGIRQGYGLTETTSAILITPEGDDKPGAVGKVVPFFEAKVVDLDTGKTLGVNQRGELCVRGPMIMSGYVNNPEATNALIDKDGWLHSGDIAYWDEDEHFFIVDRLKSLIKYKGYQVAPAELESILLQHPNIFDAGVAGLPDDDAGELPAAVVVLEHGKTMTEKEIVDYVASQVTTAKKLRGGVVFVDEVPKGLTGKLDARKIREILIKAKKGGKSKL

| light duration extended by ([1]; 200 nM SNP-Luc) [h] | light duration extended by ([1]; 4 μM SNP-Luc) [h] | Compound | IC50 (firefly luciferase) [nM] | light duration compared with free luciferase ([1]; 1 mL mixture, 12 nM luciferase, 100 μM luciferin, 100 μM ATP) | initial number of photons, times higher (living watercress plant) [times] |
| --- | --- | --- | --- | --- | --- |
| – | – | Nc1ncnc2c1ncn2C1OC(COP(=O)(O)OC(=O)c2csc(-c3nc4ccc(O)cc4s3)n2)C(O)C1O (centres unmarked) [dehydroluciferyl-adenylate] | 5 | – | – |
| 22 | 6 | SNP-Luc: firefly luciferase immobilized on 7 nm GPTS-PEG amine silica nanoparticles | – | longer light duration than that of free luciferase | 4 to 7 |
